Experiments:
Cannabinoid receptor 2 = Cannabinoid receptor 2 (Homo sapiens, UniProt P34972); assay: Inverse agonist activity at human CB2 receptor expressed in HEK293 cells assessed as forskolin-stimulated cAMP accumulation measured after 30 mins by HTRF assay; assay type: functional, cell-based
Cannabinoid receptor 1 = Cannabinoid receptor 1 (Homo sapiens, UniProt P21554); assay: Inverse agonist activity at human CB1 receptor expressed in HEK293 cells assessed as forskolin-stimulated cAMP accumulation measured after 30 mins by HTRF assay; assay type: functional, cell-based
Sequence of Cannabinoid receptor 1 (P21554 whole entry): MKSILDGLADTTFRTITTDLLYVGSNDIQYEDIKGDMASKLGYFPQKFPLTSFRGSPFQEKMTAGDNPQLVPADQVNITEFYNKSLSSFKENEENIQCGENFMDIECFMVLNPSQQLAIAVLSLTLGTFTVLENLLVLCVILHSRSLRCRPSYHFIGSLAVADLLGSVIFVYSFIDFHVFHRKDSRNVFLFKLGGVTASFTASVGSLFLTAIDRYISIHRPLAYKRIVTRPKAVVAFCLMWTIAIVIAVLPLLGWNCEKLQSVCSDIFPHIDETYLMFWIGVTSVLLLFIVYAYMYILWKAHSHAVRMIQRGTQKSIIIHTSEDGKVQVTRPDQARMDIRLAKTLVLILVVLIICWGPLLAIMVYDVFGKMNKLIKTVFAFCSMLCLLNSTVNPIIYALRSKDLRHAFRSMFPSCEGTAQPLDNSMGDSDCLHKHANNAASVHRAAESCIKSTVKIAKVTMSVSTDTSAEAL

Sequence of Cannabinoid receptor 2 (P34972 whole entry): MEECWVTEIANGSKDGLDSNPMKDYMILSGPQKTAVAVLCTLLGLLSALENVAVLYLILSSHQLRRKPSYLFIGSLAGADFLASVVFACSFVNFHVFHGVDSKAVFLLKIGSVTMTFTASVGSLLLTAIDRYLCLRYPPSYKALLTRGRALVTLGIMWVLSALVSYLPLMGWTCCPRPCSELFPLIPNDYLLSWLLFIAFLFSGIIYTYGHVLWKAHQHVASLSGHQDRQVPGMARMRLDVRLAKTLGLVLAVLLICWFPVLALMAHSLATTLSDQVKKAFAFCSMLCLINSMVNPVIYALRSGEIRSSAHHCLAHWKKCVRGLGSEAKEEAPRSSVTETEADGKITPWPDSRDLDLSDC

Row | EC50 (Cannabinoid receptor 2) [µM] | EC50 (Cannabinoid receptor 1) [µM] | SMILES
1 | > 10 |  | O=C(O)c1ccccc1S(=O)(=O)N1CCC(Nc2cnnc3ccc(C(c4ccc(Cl)cc4)c4ccc(Cl)cc4)cc23)CC1
2 | > 10 | 0.099 | Clc1ccc(C(c2ccc(Cl)cc2)c2ccc3nncc(NC4CCC(Nc5ccccc5)CC4)c3c2)cc1 (centres undefined)
3 | > 10 |  | O=S(=O)(N1CCC(Nc2cnnc3ccc(C(O)(c4ccc(Cl)cc4)c4ccc(Cl)cc4)cc23)CC1)C(F)(F)F

Reference: ChEMBL document CHEMBL4715810, “Treatment of Metabolic Disorders with CB-1 Receptor Inverse Agonists” (ACS Med Chem Lett, 2016)
